Laboratory results taken from patent US20240262865A1, “Calcium independent phosphatidylserine binding compounds for detecting phosphatidylserine positive cells” (priority 2023, published 2024).
BODIPY = fluorogenic core (…diaza-s-indacene), attached to Trp by a spacer-free C—C linkage

Legend:
PS positive cells [1] = test: Flow cytometry staining of PS positive cells on one day old mouse thymocytes, side by side with Apotracker Green and Annexin V; assay type: cell-based; details: one day old C57BL/6 mouse thymocytes, Atto 647 Item-2 28 pM/test and Apotracker 400 nM/test in PBS without Ca2+, Alexa 647 Annexin V in Annexin V binding buffer, Sytox Blue
From the text: Whether an agent is considered to be a PS binding agent or to have a PS binding activity, it can be determined by using a flow cytometer to detect the PS binding activity of said agent which has been illustrated in the art. Thereby, PS positive cells can be used in such an assay, wherein the number of stained cells may be compared to the reference agent Apotracker Green and/or Annexin V, in accordance with the present invention.
To validate the Atto 647 Item-2 by flow cytometry, one day old C57BLU6 mouse thymocytes were side by side incubated with 28 pM/test of Atto 647 Item-2 and Sytox Blue or 400 nM/test of Apotracker and Sytox Blue in PBS without Ca^2+ or 5 μLtest of Alexa 647 Annexin V and of Sytox Blue in Annexin V binding buffer for 15 minutes at room temperature, then the cells were analyzed with NovoCyte Quanteon flow cytometry without wash. Debris were gated out based on cell density plot in a lower level of forward scatter. The two-parameter density plots show Atto 647 Item-2 or Apotracker Green or Annexin V versus Sytox Blue. Sytox Blue is an impermeant blue-emitting nucleic acid indicator which is used for indicating the dead cells. Sytox Blue was used at 20 nM/test in herein.
The cells were analyzed with NovoCyte Quanteon flow cytometry without wash.

PS positive cells [2] = test: Flow cytometry of Atto 647 Item-2 stained U937 cells before and after 2% PFA fixation; assay type: cell-based; details: U937 cells in PBS without Ca2+
Procedure: In order to validate if the PS positive cells stained with Atto 647 Item-2 are fixable, the fresh and 2 days IL-4 stimulated U937 cells were simultaneously stained with 28 pM/test of Atto 647 Item-2 and 20 nM of Sytox Blue, then the cells were split into two sets. One set of cells were analyzed with flow cytometry right after staining without wash, the other set of cells were fixed by adding 16% of Paraformaldehyde (PFA) to the final concentration at 2% PFA for 10 minutes at room temperature followed by centrifugation at 350 g for 5 minutes. Then the cells were resuspended in PBS without Ca^2+. The fresh cells and stimulated cells with or without fixation were analyzed on day 0 and day 2 respectively. The cells were analyzed with NovoCyte Quanteon flow cytometry without wash.

| Molecule | staining pattern and frequencies of PS positive dying cells and dead cells (PS positive cells [1]) | calcium dependence of PS binding (PS positive cells [2]) |
| --- | --- | --- |
| Apotracker Green: cyclic peptide of SEQ ID NO: 1 [RKKWFW(BODIPY)G]; calcium-independent PS binding agent, commercial name Apotracker Green (cyclo(RKKWFW(BODIPY)G)) [reference compound] | comparable to each other |  |
| Item-2: PS binding compound derivative comprising SEQ ID NO: 2 [RKKWFWC], head-to-tail cyclized (head-to-tail cyclized) |  | Ca^2+ independent |
| Annexin V: recombinant protein, PS binding agent binding PS in the presence of calcium; used as Alexa 647 conjugate (protein, UniProt P08758 2-320, looked up, Alexa 647 label, used as Alexa 647 conjugate) Annexin A5: AQVLRGTVTDFPGFDERADAETLRKAMKGLGTDEESILTLLTSRSNAQRQEISAAFKTLFGRDLLDDLKSELTGKFEKLIVALMKPSRLYDAYELKHALKGAGTNEKVLTEIIASRTPEELRAIKQVYEEEYGSSLEDDVVGDTSGYYQRMLVVLLQANRDPDAGIDEAQVEQDAQALFQAGELKWGTDEEKFITIFGTRSVSHLRKVFDKYMTISGFQIEETIDRETSGNLEQLLLAVVKSIRSIPAYLAETLYYAMKGAGTDDHTLIRVMVSRSEIDLFNIRKEFRKNFATSLYSMIKGDTSGDYKKALLLLCGEDD | comparable to each other |  |
